The numbers were not newly measured in patent US10980718B2, “Personal care compositions comprising poorly soluble compounds” (Conopco, Inc., priority 2016, dated 2021), which cites them from elsewhere.

Take `N[C@@H](CSSC[C@H](N)C(=O)O)C(=O)O` [cystine]: the “solubility of cystine in aqueous solutions by pH” value (aqueous solutions with pH less than 2 or pH above 8) is “more soluble”. Further, the “natural solubility limit of cystine” value (room temperature and neutral pH) is listed as 0.01 wt %.
